Experimental findings from PubChem BioAssay (NCI) are described below.

SMILES strings stand for the structures.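 Five concentrations, 48 hours, 96-well plates. TGI denotes the concentration required for complete inhibition of growth.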 Where only a bound is given, the exact number is not on record here.

Some test systems named below: UACC-62 melanoma; UACC-257 melanoma; SK-MEL-28 melanoma; CAKI-1 renal; SF-268 CNS; UO-31 renal; SK-OV-3 ovarian; NCI-H460 lung; A549 NSCLC; SN12C renal.
Common to all, as to test: growth of human tumour cells (NCI), 48 h

For the compound `CCc1nc2c([nH]1)C(=O)c1ccccc1C2=O`, the TGI is more than 100 µM in the experiment with UACC-62 melanoma; 78 µM with UACC-257 melanoma; more than 100 µM in the experiment on SK-MEL-28 melanoma; more than 100 µM in the experiment with CAKI-1 renal; more than 100 µM in the experiment on SF-268 CNS; more than 100 µM in the experiment on UO-31 renal. Also, the TGI with SK-OV-3 ovarian, in the experiment with NCI-H460 lung, in the experiment with A549 NSCLC and with SN12C renal was more than 100 µM each time.
As for `CC(=O)OC1COC(N2c3ccccc3[C@@H]3CCc4c([nH]c5ccccc45)[C@@H]32)C(OC(C)=O)C1OC(C)=O` (mixture of isomers), the TGI with UACC-62 melanoma, in the experiment with UACC-257 melanoma, in the experiment on SK-MEL-28 melanoma, in the experiment with CAKI-1 renal, in the experiment on SF-268 CNS and with UO-31 renal was more than 100 µM in each case. Moreover, the TGI in the experiment on SK-OV-3 ovarian, in the experiment with NCI-H460 lung, in the experiment with A549 NSCLC and with SN12C renal was more than 100 µM in each case.
`CC(=O)Nc1ccc2c(c1)nc1c3ccccc3ccn21`: the TGI in the experiment with UACC-62 melanoma, with UACC-257 melanoma, with SK-MEL-28 melanoma, in the experiment on CAKI-1 renal, with SF-268 CNS and in the experiment on UO-31 renal was more than 100 µM throughout. The TGI with SK-OV-3 ovarian, in the experiment with NCI-H460 lung, with A549 NSCLC and with SN12C renal was more than 100 µM throughout.
In the case of `COC(=O)[C@@H]1[C@H]2CC[C@]3(C)[C@@H](OC(C)=O)CC[C@H]3[C@@H]2CC[C@H]1C1(C)SCCS1`, the TGI was more than 100 µM with UACC-62 melanoma; 53.3 µM in the experiment on UACC-257 melanoma; more than 100 µM in the experiment with SK-MEL-28 melanoma; more than 100 µM with CAKI-1 renal; more than 100 µM in the experiment with SF-268 CNS; more than 100 µM in the experiment on UO-31 renal. For the same compound, the TGI with SK-OV-3 ovarian was more than 100 µM; in the experiment with NCI-H460 lung, 97.8 µM; in the experiment on A549 NSCLC it was 74.5 µM; with SN12C renal, 37 µM.
